# Values of other authors as cited in patent publication US20010004459A1, “Composition with sustained release of active principle, capable of forming a microemulsion” (priority 1998, published 2001).
# Conditions: acidic pH (dissolution curve at pH 1.2, FIG. 2)
smiles,measurement,value
"COc1ccc2c(c1)c(CC(=O)O)c(C)n2C(=O)c1ccc(Cl)cc1 [indomethacin, Indomethacin]",solubility at acidic pH,insoluble
